Measurements reported in US6852526B2, “Transdermal assay with magnetic clamp” (Transform Pharmaceuticals, Inc., priority 2000, dated 2005).
Values joined by “and” are separate entries in the source; they are usually repeats but may differ in a detail not shown here. Equal entries are not always repeated. Structures can show the parent of a compound that is named as a salt. Where two headings read alike, the source gives them in different places.

Legend:
[1] = Procedure: Human cadaver skin epidermis was prepared by first separating skin from the underlying fat and then separating the epidermis by heat treatment at 60° C. for 90 seconds using standard techniques.
An apparatus as described in FIG. 6 was assembled, wherein each plate in the apparatus was a rectangular shape having dimensions of 5.030″ (127.76 mm) by 3.365″ (85.48 mm). The apparatus was assembled by first placing a ⅛″ (3.175 mm) thick clear polycarbonate spacer plate 620 on top of an aluminum base plate 610 and aligning screw holes 622 in the spacer plate with screw holes 612 in the base plate. Thereafter, a 4×4 sample array was created on spacer plate 620, as described in Table 2 below:
Punched samples were placed on spacer plate 620 in the 4×4 array of Table 2 one at a time, and the location of each array sample was selected using guide marks 614 on base plate 610 to ensure that each array sample was placed such that it aligned with a donor reservoir 654 in reservoir plate 650. There were 96, 0.020″ (0.508 mm) deep, guide marks 614 on base plate 610, arranged in a 12×8 array which was located 11.24 mm in from the edges of the long sides of base plate 610, and 14.38 mm in from the edges of its short sides. At the time of placement, the release liner on each sample was removed to expose the drug reservoir/adhesive of the sample.
Array locations B3, C1, and D3 were controls without any samples in order to determine the potential impact of lateral diffusion on transdermal transport measurements with this apparatus.
Once all the samples were placed in the array, the piece of heat-stripped human cadaver skin, the size of which was larger than the array of samples, was gently and slowly placed over the samples so as to avoid any air pockets between the skin and the samples. The skin was oriented with the stratum corneum next to the samples. Then, a ¼″ (6.35 mm) thick clear polycarbonate reservoir plate 650 having an 4×4 array of ¼″ (6.35 mm) diameter donor reservoirs 654 was placed over the skin such that all of screw holes 652 on reservoir plate 650 were aligned with the corresponding screw holes 622 of spacer plate 620.
The resulting assembled apparatus 600 was clamped together by sliding a shoulder screw 660 with threads 622 through aligned screw holes 652 at each of the four corners of the assembled apparatus, and tightening each shoulder screw 660 so as to form a seal between reservoir plate 650 and the skin.
[…] of Dulbecco's Phosphate Buffered Saline (PBS) was added to each donor reservoir in the array as the reservoir medium.
After 2 hours, a […] test aliquot of reservoir medium was removed from each donor reservoir 654, and at that time, an additional […] of PBS was added into each donor reservoir 654. Each of the 2-hour test aliquots was placed in an HPLC vial and diluted to […] by addition of […] of 50:50 (v/v) 50 mM potassium phosphate (adjusted to pH 3.0 with phosphoric acid) and acetonitrile.
The foregoing process was repeated at 3 hours, 4 hours, and 5 hours.
The components of the HPLC system used to analyze the test aliquots were a Waters 2790 Separations Module, a Waters Photodiode Array Detector Model 996, and Waters Millennium 32 v3.2 Chromatography Software (Waters Corp., Milford Mass.).
The HPLC analysis was performed using a Platinum EPS C18 column (Alltech Associates, Muskegan, Mich.) with dimensions of 250 mm×4.6 mm and a […] particle size. The mobile phase was 50:50 (v/v) 50 mM potassium phosphate (adjusted to pH 3.0 with phosphoric acid): acetonitrile, with a flow rate of 1.0 ml/minute. Detection was performed by measuring UV absorbance at a wavelength of 260 nm. The run time was 4 minutes. Injection volume was […]. Column temperature was ambient.

[2] = passive experiments; cited from earlier work
[3] = cited from earlier work
[4] = empty control location (B3, C1, D3), no sample: lateral diffusion, 2 hour
[5] = empty control location (B3, C1, D3), no sample: lateral diffusion, 3 hour
[6] = empty control location (B3, C1, D3), no sample: lateral diffusion, 4 hour
[7] = sample* (A4, D1): drug reservoir came off the backing with the release liner, 2 hour
[8] = sample* (A4, D1): drug reservoir came off the backing with the release liner, 3 hour
[9] = sample* (A4, D1): drug reservoir came off the backing with the release liner, 4 hour
[10] = sample* (A4, D1): drug reservoir came off the backing with the release liner, 5 hour

Compound: CN1CCCC1c1cccnc1 (centres unmarked) [Nicotine, nicotine]
- transdermal movement of the active component ([1]; detected in donor reservoirs over NICODERM CQ samples): crossed the skin barrier
- lateral diffusion to adjacent wells ([1]; donor reservoirs not located over samples): sufficiently slower than direct transdermal movement
- Nicotine Concentration Of Diluted Test Aliquots [1, 4]: 2.2 mg/mL and 1.5 mg/mL and 2.6 mg/mL
- Nicotine Concentration Of Original Test Aliquots [1, 4]: 22.0 mg/mL and 15.0 mg/mL and 26.0 mg/mL
- Nicotine Accumulation in donor reservoir ([1]; empty control location (B3, C1, D3), no sample: lateral diffusion, 2 hr): 1.650 mg and 1.125 mg and 1.950 mg
- Nicotine Concentration Of Diluted Test Aliquots [1, 5]: 2.5 mg/mL and 3.2 mg/mL and 4.0 mg/mL
- Nicotine Concentration Of Original Test Aliquots [1, 5]: 25.0 mg/mL and 32.0 mg/mL and 40.0 mg/mL
- Nicotine Accumulation in donor reservoir ([1]; empty control location (B3, C1, D3), no sample: lateral diffusion, 3 hr): 4.663 mg and 3.150 mg and 4.300 mg
- Nicotine Concentration Of Diluted Test Aliquots [1, 6]: 4.8 mg/mL and 2.7 mg/mL and 4.2 mg/mL
- Nicotine Concentration Of Original Test Aliquots [1, 6]: 48.0 mg/mL and 27.0 mg/mL and 42.0 mg/mL
- Nicotine Accumulation in donor reservoir ([1]; empty control location (B3, C1, D3), no sample: lateral diffusion, 4 hr): 7.075 mg and 4.375 mg and 6.450 mg
- Nicotine Accumulation in donor reservoir ([1]; empty control location (B3, C1, D3), no sample: lateral diffusion, 5 hr): 10.975 mg and 5.650 mg and 8.925 mg
- Nicotine Concentration Of Diluted Test Aliquots [1, 7]: 1.0 mg/mL and 1.1 mg/mL
- Nicotine Concentration Of Original Test Aliquots [1, 7]: 10.0 mg/mL and 11.0 mg/mL
- Nicotine Accumulation in donor reservoir ([1]; sample* (A4, D1): drug reservoir came off the backing with the release liner, 2 hr): 0.825 mg and 0.750 mg
- Nicotine Concentration Of Diluted Test Aliquots [1, 8]: 1.2 mg/mL and 1.4 mg/mL
- Nicotine Concentration Of Original Test Aliquots [1, 8]: 12.0 mg/mL and 14.0 mg/mL
- Nicotine Accumulation in donor reservoir ([1]; sample* (A4, D1): drug reservoir came off the backing with the release liner, 3 hr): 1.600 mg and 1.400 mg
- Nicotine Concentration Of Diluted Test Aliquots [1, 9]: 1.4 mg/mL and 1.6 mg/mL
- Nicotine Concentration Of Original Test Aliquots [1, 9]: 14.0 mg/mL and 16.0 mg/mL
- Nicotine Accumulation in donor reservoir ([1]; sample* (A4, D1): drug reservoir came off the backing with the release liner, 4 hr): 2.450 mg and 2.150 mg
- Nicotine Concentration Of Diluted Test Aliquots [1, 10]: 1.6 mg/mL and 1.8 mg/mL
- Nicotine Concentration Of Original Test Aliquots [1, 10]: 16.0 mg/mL and 18.0 mg/mL
- Nicotine Accumulation in donor reservoir ([1]; sample* (A4, D1): drug reservoir came off the backing with the release liner, 5 hr): 3.400 mg and 3.000 mg

Compound: CCCCCCCC/C=C\CCCCCCCC(=O)OCC(COC(=O)CCCCCCC/C=C\CCCCCCCC)OC(=O)CCCCCCC/C=C\CCCCCCCC [glycerol trioleate]
- corticosterone flux enhancement relative to the passive flux from PBS alone [2]: 0.8

Compound: COC1=CC(=O)C[C@@H](C)[C@]12Oc1c(Cl)c(OC)cc(OC)c1C2=O [griseofulvin]
- Properties: absorption / water solubility [3]: Poor absorption due to its low water

Compound: CCCCCCCCCCCCCC(=O)OC(C)C [isopropyl myristate]
- corticosterone flux enhancement relative to the passive flux from PBS alone [2]: 5

Compound: CC(=O)O[C@H]1C(=O)[C@@]2(C)[C@H]([C@H](OC(=O)c3ccccc3)[C@]3(O)C[C@H](OC(=O)[C@H](O)[C@@H](NC(=O)c4ccccc4)c4ccccc4)C(C)=C1C3(C)C)[C@]1(OC(C)=O)CO[C@@H]1C[C@@H]2O [paclitaxel]
- Properties: absorption / water solubility [3]: Poor absorption due to its low water

Compound: CC(C)c1nc(CN(C)C(=O)N[C@H](C(=O)N[C@@H](Cc2ccccc2)C[C@H](O)[C@H](Cc2ccccc2)NC(=O)OCc2cncs2)C(C)C)cs1 [ritonavir]
- Properties: polymorphic stability ([3]; shipping and storage): Can undergo a polymorphic shift during

Compound: CC(C)(C)NC(=O)[C@@H]1C[C@@H]2CCCC[C@@H]2CN1C[C@@H](O)[C@H](Cc1ccccc1)NC(=O)[C@H](CC(N)=O)NC(=O)c1ccc2ccccc2n1 [saquinavir]
- Properties: absorption / water solubility [3]: Poor absorption due to its low water

Compound: CCCc1nn(C)c2c(=O)[nH]c(-c3cc(S(=O)(=O)N4CCN(C)CC4)ccc3OCC)nc12 [sildenafil citrate]
- Properties: absorption / water solubility [3]: Poor absorption due to its low water

Compound: polyethylene glycol 200 dilaurate
- corticosterone flux enhancement relative to the passive flux from PBS alone [2]: 2
